From patent publication US20110039873A1, “SUBSTITUTED PYRAZOLO[1,5-a] PYRIDINE COMPOUNDS HAVING MULTI-TARGET ACTIVITY” (priority 2009, published 2011)
Where two headings read alike, the source gives them in different places.

Key:
[1] = target: T1, recombinant full length human JNK3 enzyme (Homo sapiens, UniProt P53779); assay: JNK 3 inhibition assay (ATP depletion, luciferase); type: biochemical; details: for IC50: 10 uM ATP, ATF2 substrate; for JNK-3 inhibition (in words): see Table 2
T1 construct: recombinant full length human JNK2 or JNK3 enzyme; purchased Upstate; host or cells: Sf21 cells
T1 sequence (P53779 whole entry): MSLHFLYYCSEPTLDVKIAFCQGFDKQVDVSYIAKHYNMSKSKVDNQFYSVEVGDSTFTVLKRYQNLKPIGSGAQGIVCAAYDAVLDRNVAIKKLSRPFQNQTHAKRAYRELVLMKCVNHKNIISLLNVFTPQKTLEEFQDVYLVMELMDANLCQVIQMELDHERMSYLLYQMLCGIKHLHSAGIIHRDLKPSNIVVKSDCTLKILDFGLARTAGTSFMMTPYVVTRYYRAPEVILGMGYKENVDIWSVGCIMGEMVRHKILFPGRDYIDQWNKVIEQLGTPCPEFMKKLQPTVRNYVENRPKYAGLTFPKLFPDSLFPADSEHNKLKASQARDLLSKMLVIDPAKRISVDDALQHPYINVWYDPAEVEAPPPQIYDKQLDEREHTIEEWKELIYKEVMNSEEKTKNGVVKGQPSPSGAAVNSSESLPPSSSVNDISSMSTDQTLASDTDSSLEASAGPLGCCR
Procedure: In a 96-well plate, recombinant full length human JNK2 or JNK3 enzyme (40 ng) expressed in Sf21 cells (Upstate) was incubated with the substrate ATF2 (3 uM) for 1 hour in the presence of 10 uM ATP. […] The ATP levels were quantified using luciferase with luminescence read on a Victor Light 1420 luminometer. IC50 calculations were plotted using a nonlinear regression curve fit.

[2] = target: T2, recombinant full length human JNK2 enzyme (Homo sapiens, UniProt P45984); assay: JNK 2 inhibition assay (ATP depletion, luciferase); type: biochemical
T2 construct: recombinant full length human JNK2 or JNK3 enzyme; purchased Upstate; host or cells: Sf21 cells
T2 sequence (P45984 whole entry): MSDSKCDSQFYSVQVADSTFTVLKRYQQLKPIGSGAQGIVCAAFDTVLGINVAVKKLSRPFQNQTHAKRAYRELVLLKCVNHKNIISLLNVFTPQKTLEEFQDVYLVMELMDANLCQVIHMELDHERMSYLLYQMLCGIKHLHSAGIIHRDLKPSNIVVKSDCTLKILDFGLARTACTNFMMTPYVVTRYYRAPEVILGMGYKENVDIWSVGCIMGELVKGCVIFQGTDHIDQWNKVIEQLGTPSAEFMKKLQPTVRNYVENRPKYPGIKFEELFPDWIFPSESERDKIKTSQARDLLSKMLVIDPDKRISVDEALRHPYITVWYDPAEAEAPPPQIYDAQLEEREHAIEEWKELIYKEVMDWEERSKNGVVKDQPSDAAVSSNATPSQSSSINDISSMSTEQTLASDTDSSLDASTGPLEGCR
Procedure: In a 96-well plate, recombinant full length human JNK2 or JNK3 enzyme (40 ng) expressed in Sf21 cells (Upstate) was incubated with the substrate ATF2 (3 uM) for 1 hour in the presence of 10 uM ATP. […] IC50 calculations were plotted using a nonlinear regression curve fit.

[3] = target: T3, recombinant human phosphodiesterase 10A1 enzyme (Homo sapiens, UniProt Q9Y233); assay: PDE10 inhibition assay (PDELight); type: biochemical; details: for IC50: 1 uM cAMP, read-out: PDE 10 Inhibition (IC50 in μM); for PDE-10 inhibition (in words): Table 2
T3 construct: purchased BPS Biosciences; host or cells: Baculovirus infected Sf9 cells
T3 sequence (Q9Y233 1-779 isoform Q9Y233-1): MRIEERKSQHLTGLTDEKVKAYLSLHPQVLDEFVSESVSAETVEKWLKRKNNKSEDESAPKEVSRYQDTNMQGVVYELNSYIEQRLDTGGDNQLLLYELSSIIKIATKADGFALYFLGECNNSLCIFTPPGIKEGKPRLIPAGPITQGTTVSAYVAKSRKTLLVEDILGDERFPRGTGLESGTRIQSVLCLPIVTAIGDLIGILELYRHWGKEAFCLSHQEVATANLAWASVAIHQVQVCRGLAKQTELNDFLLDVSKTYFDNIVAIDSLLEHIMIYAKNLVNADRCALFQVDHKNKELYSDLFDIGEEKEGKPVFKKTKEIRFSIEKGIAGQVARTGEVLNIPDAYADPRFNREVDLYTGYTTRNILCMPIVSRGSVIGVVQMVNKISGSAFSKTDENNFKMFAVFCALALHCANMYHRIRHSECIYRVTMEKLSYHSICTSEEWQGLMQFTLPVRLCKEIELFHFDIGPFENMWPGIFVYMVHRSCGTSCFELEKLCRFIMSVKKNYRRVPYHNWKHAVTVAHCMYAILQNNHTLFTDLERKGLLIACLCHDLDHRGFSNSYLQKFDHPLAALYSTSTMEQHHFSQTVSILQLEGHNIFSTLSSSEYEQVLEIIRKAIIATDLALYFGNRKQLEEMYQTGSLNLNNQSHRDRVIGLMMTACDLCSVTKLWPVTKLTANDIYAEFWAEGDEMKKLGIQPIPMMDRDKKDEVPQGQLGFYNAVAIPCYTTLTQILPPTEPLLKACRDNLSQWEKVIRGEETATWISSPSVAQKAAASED

[4] = system: Mouse BV-2 microglial cells; assay: BV-2 glial cell assay (TNF-α and MCP-1 by Luminex); type: cell-based; details: for EC50: Mus musculus, BV-2, LPS and IFN-γ activated, 20 hours; for inhibiting glial cell activation (TNF-α and/or MCP-1): Table 3
Procedure: Mouse BV-2 microglial cells were seeded on 96-well plates at a concentration of 3×10^4 cells/well. Cells were activated with 100 ng/mL LPS and IFN-γ (100 ng/mL) in the presence or absence of test compounds (0-30 uM). Following incubation for 20 hours, cells were spun down and supernatant collected. The supernatant was analyzed via Luminex for the presence of TNF-α and MCP-1.

[5] = system: phosphorylated c-Jun (serine-73); assay: Phosphorylated c-JUN (6-OHDA), SH-SY5Y; type: cell-based; details: Homo sapiens, 50 uM 6-hydroxydopamine, 1.5 hours, read-out: p-cJun 6-OHDA SH-SY5Y (EC50 in μM)
In short: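 SH-SY5Y cells challenged with 50 uM 6-hydroxydopamine with or without compound (0-30 uM) for 1.5 hours, then paraformaldehyde-fixed. Phospho-c-Jun (Ser73) quantified by cell-based ELISA.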

[6] = system: phosphorylated c-Jun (serine-73); assay: Phosphorylated c-JUN (A-beta), SH-SY5Y; type: cell-based; details: Homo sapiens
Procedure: In 96-well plates either human SH-SY5Y neuroblastoma cells at 2.5×10^4 cells/well or E18 rat neuronal cells at 1.5×10^4 cells/well were seeded. […] Supernatant was discarded and cells were fixed with 4% paraformaldehyde (100 ul/well) for 20 minutes. FACE cell based ELISA assay (Active Motif) was performed specific for quantifying phosphorlyated c-Jun (serine-73).

[7] = system: phosphorylated c-Jun (serine-73); assay: Phosphorylated c-JUN (A-beta), E18 rat neuronal cells; type: cell-based; details: Amyloid Beta peptide 30 uM, 3 hours, read-out: p-cJun Abeta E18 (EC50 in μM)
Procedure: In 96-well plates either human SH-SY5Y neuroblastoma cells at 2.5×10^4 cells/well or E18 rat neuronal cells at 1.5×10^4 cells/well were seeded. To each well the following was added, Amyloid Beta peptide 1-25 (source) at a concentration of 30 uM, retinoic acid (10 uM) and test compounds (0-30 uM) and incubated for 3 hours. Supernatant was discarded and cells were fixed with 4% paraformaldehyde (100 ul/well) for 20 minutes. FACE cell based ELISA assay (Active Motif) was performed specific for quantifying phosphorlyated c-Jun (serine-73).

[8] = Oral pharmacokinetic evaluation; type: in vivo, rat; details: Sprague-Dawley rats; for half-life / AUC(0-t) / Cmax: male, rat, plasma; for half-life: Sprague-Dawley, po, 15 mg/kg; for AUC(0-t): read-out: Oral PK AUClast; for Cmax: read-out: Oral PK Cmax
Procedure: Three male Sprague-Dawley rats were dosed orally via gavage with 15 mg/kg of test compound. Serial blood samples were collected from the jugular vein at 5, 15, and 30 min, 1, 3, and 6 hours post dosing. Samples were processed for plasma via centrifugation and plasma samples were stored frozen prior to analysis via a sensitive and specific HPLC/MS/MS method. PK parameters were calculated using WinNonLin (Pharsight).

[9] = system: rat chronic constriction injury (CCI) model of neuropathic pain; assay: Rat chronic constriction injury (CCI) model of neuropathic pain; type: in vivo; details: for IP CCI efficacy (Change in grams): dose not given, 50% paw withdrawal threshold, von Frey
[10] = 10 uM ATP, ATF2 substrate, read-out: JNK 2 Inhibition (IC50 in μM)
[11] = read-out: MCP-1 BV-2 (EC50 in μM)
[12] = read-out: TNF-a BV-2 (EC50 in μM)
[13] = Amyloid Beta peptide 30 uM, 3 hours, read-out: p-cJun Abeta SH-SY5Y (EC50 in μM)
[14] = 15 mg/kg oral gavage, read-out: Oral PK T½ (converted)
[15] = read-out: IC50 value based upon a JNK 2 inhibition assay (range given)
[16] = read-out: p-cJun SH-SY5Y (EC50 in μM), no Abeta

| IC50 [1] [µM] | IC50 [2, 10] [µM] | IC50 [3] [µM] | PDE-10 inhibition (in words) [3] | EC50 [4, 11] [µM] | EC50 [4, 12] [µM] | EC50 [5] [µM] | EC50 [6, 13] [µM] | EC50 [7] [µM] | half-life [8, 14] [h] | AUC(0-t) ([8]; 15 mg/kg oral gavage) [ng·h/mL] | Cmax ([8]; 15 mg/kg oral gavage) [ng/mL] | JNK-3 inhibition (in words) [1] | IC50 [2, 15] [µM] | EC50 [6, 16] [µM] | SMILES | inhibiting glial cell activation (TNF-α and/or MCP-1) [4] | IP CCI efficacy (Change in grams) [9] [grams] | further results |
| --- | --- | --- | --- | --- | --- | --- | --- | --- | --- | --- | --- | --- | --- | --- | --- | --- | --- | --- |
| 2.6 | 1.6 | 9.9 | particularly effective | 1.1 | 1.2 | 6.1 | > 30 | 3 | 1.2 | 52 | 26 | – | – | – | CC(C)Nc1nccc(-c2c(C(C)C)nn3ccccc23)n1 [AV1137, N-isopropyl-4-(2-isopropylpyrazolo[1,5-a]pyridin-3-yl)pyrimidin-2-amine] | Particularly effective | 3.26 | PO CCI efficacy (Change in grams) ([9]; 75 mg/kg): 0.94 (75 mg/kg) grams |
| 0.3 | 0.5 | 5.8 | particularly effective | 4.9 | 0.4 | 3.1 | 2.9 | 1.4 | – | 12 | 17 | particularly effective | 0.01 to 2 | 1.1 | CC(C)Nc1nccc(-c2cnn3ccccc23)n1 [AV1164, N-isopropyl-4-(pyrazolo[1,5-a]pyridin-3-yl)pyrimidin-2-amine] | Particularly effective | 1.56 | – |
| 0.2 | 0.4 | 7.5 | particularly effective | 0.6 | 0.2 | 1.1 | – | 15 | – | < 5 | – | particularly effective | 0.01 to 2 | 7.6 | c1ccn2ncc(-c3ccnc(NC4CCCC4)n3)c2c1 [AV1165, N-cyclopentyl-4-(pyrazolo[1,5-a]pyridin-3-yl)pyrimidin-2-amine] | Particularly effective | 0.44 | – |
| 1.2 | 0.3 | 7.4 | particularly effective | 0.7 | 1.4 | 7.7 | – | – | 9.4 | 462 | 122 | particularly effective | 0.01 to 2 | – | CC(C)Nc1nccc(-c2c(C3CC3)nn3ccccc23)n1 [AV1173, 4-(2-cyclopropylpyrazolo[1,5-a]pyridin-3-yl)-N-isopropylpyrimidin-2-amine] | Particularly effective | 2.5 | half life following oral dosing (in words) ([8]; oral): particularly prolonged half lives; half-life ([8]; oral, read-out: half life following oral dosing): > 3 h; PO CCI efficacy (Change in grams) ([9]; 30 mg/kg): 1.6 (30 mg/kg) grams; reversal of allodynia ([9]; oral dosing, multi-day, 24 hr time-points, FIG. 6): capable of reversing allodynia and sustaining the efficacy overnight |
